Results on 31 compounds are retold here after patent US11479561B2, “Tetrahydroisoquinoline derivatives” (Cytokinetics, Incorporated, priority 2016, dated 2022).

Structures are written as SMILES. A value given as a limit tells only on which side of the number the result lay.

Assay [1] has as its system ankle plantarflexor muscle. In words: Rat isometric ankle plantarflexor muscle force. It is filed as in vivo, Sprague Dawley rats. The following applies: estimated, concentration at which muscle force is 50% of the pre-dose maximum tension, 30 Hz stimulation, continuous intravenous infusion over 60 min. The text has this: Female Sprague Dawley rats were placed under a stable anesthesic plane with inhaled isoflurane (1-5%). One incision was made on the mid-thigh region of the right leg to expose the sciatic nerve. To prevent co-contraction of the ankle dorsiflexors, an additional incision was made lateral to the patella to isolate and sever the peroneal nerve. Rats were then placed on a temperature-maintained in situ muscle analysis rig (Aurora Scientific, Model 806C). The knee was immobilized in a clamp between two sharpened screws and the foot was taped to a footplate attached to a force transducer (Aurora Scientific, Ontario, Canada). Stainless steel needle electrodes (0.10 mm) were hooked around the exposed sciatic nerve. Isometric ankle plantarflexor muscle contractile force was assessed with the ankle joint at 90° flexion. A 30 Hz electrical stimulation (under supramaximal voltage conditions) was applied to the nerve and the resulting muscle force was recorded via a servomotor. A pre-dose 30 Hz force response was established as the baseline force. A pre-dose 150 Hz force response was established as the maximum isometric force. Compounds were formulated in 50% polyethylene glycol (PEG): 16% Cavitron: 10% dimethylacetamide (DMA) and administered by continuous intravenous infusion over a sixty minute period. The muscle force response to compound was measured every two minutes over the dosing period. Data was reported as an estimated EC50 value, which is the concentration at which muscle force is 50% of the pre-dose maximum tension.

Assay [2] concerns rabbit skeletal myofibrils (approximately 90% fast fibers). In words: Activation of fast skeletal myofibrils (PUMA coupled-enzyme ATPase assay). Format: biochemical. Particulars: concentration at which the compound increased the enzymatic activity by 40%; calcium level pCa25. How it is done: Preparation of fast skeletal myofibrils: Rabbit skeletal myofibrils were prepared based upon the method of Herrmann et al. (Biochem. 32(28):7255-7263(1993). Myofibrils were prepared from rabbit psoas muscle purchased from Pel-Freez Biologicals (Arkansas) within 2 days of ordering, stored on ice. Minced muscle was homogenized in 10 volumes of ice-cold “standard” buffer (50 mM Tris, pH 7.4, 0.1 M KOAc, 5 mM KCl, 2 mM dithiothreitol (DTT), 0.2 mM phenylmethylsulfonyl fluoride (PMSF), 10 μM leupeptin, 5 μM pepstatin, and 0.5 mM sodium azide) containing 5 mM ethylenediaminetetraacetic acid (EDTA) and 0.5% Triton X-100 using an Omni-Macro homogenizer. Myofibrils were recovered by low speed centrifugation (3000 rpm for 10 minutes) and washed 2 times in the Triton X-100 containing buffer to ensure removal of cellular membrane. Following the Triton washes, myofibrils were washed 3 times in “standard” buffer containing 2 mM magnesium acetate. A final wash in assay buffer (12 mM piperazine-1,4-bis(2-ethanesulfonic acid) (PIPES), pH 6.8, 60 mM KCl, 1 mM DTT) was performed and brought to 10% sucrose for flash freezing in liquid nitrogen and storage at −80° C.
Activation of Fast Skeletal Myofibrils: Fast fiber activators were identified by Measuring the enzymatic activity of muscle myofibril preparations using the proprietary PUMA (trademark) (see, e.g., U.S. Pat. Nos. 6,410,254, 6,743,599, 7,202,051, and 7,378,254) assay system. Myofibril preparations consisted of rabbit skeletal muscle (approximately 90% fast fibers) that had been mechanically homogenized and washed with a detergent (Triton X-100) to remove cellular membranes. This preparation retained all of the sarcomeric components in a native conformation and the enzymatic activity was still regulated by calcium. Compounds were tested using a myofibril suspension and a level of calcium sufficient to increase enzymatic activity of the myofibrils to 25% of their maximal rate (termed pCa25). Enzymatic activity was tracked via a pyruvate kinase and lactate dehydrogenase-coupled enzyme system. This assay regenerates myosin-produced ADP into ATP by oxidizing NADH, producing an absorbance change at 340 nm. The buffering system was 12 mM PIPES, 2 mM MgCl2, 1 mM DTT at pH 6.8 (PM12 buffer).

Another assay deals with rat model of post-SCI. The experiment in a line: Basso, Beattie, and Bresnahan (BBB) score of post-spinal cord injury (SCI). It is filed as in vivo, SD rats. Particulars: post-SCI rats; day 6-7, 13-14, 20-21 after SCI; FIG. 8. As for the experimental part: Preparation of the rat model of post-SCI: The rat model was prepared based on the method of Scheff et. al. (J Neurotrauma. 2003 February; 20(2):179-93.) which uses Infinite Horizon impactor (IH-0400; Precision Systems and Instrumentation). Female SD rats (10 week old) were anesthetized with a mixture of 0.3 mg/kg medetomidine, 4 mg/kg midazoram, and 5 mg/kg butorphanol (s.c.). The dorsal region of the rats was incised and the thoracic spine from T8 to T12 was exposed. Subsequently, laminectomy was performed on T9 and T10. On the stage of IH-0400, the exposed spinal column of the rats was stabilized by clamping with two forceps attached to the joints of IH-0400. Each of the joint and the forceps was tightly locked. Injury of T9 and T10 was induced with a rod impact of 210 kdyn. After dorsal closure, the rats were housed one per cage under the postoperative care which includes the injections of 5 mL saline s.c. and 50 mg/kg Cefamezin s.c twice a day for a week after the SCI, and includes the manual expression of the bladder of the rats twice a day using Crede maneuver until the function of the bladder recovers. […] The effect of Example Compound 52 or vehicle was analyzed using unpaired t test (a probability value of less than 0.05 was considered as a significant difference). Data were expressed as the mean±SEM.

For orientation: EC50 means the concentration giving half of the maximal effect. Take `CCC1(CCO)C(=O)NC2(COC2)c2ccc(OC(F)F)nc21` (centres unmarked) [compound 15]: the concentration giving a half-maximal response (EC50) in assay [1] (Rattus norvegicus, iv, 1 h) is 16.4 µM.
Consider `CCC1(CC)C(=O)NC2(COC2)c2ncc(Cl)cc21` [compound 74], for which, in assay [1] (Rattus norvegicus, iv, 1 h), the EC50 is 15.4 µM. For the same compound, the AC1.4 in assay [2] came out at 0.902 µM.
On to `CC1(C)C(=O)NC2(COC2)c2ccc(OC(F)F)nc21` [compound 18], for which, in assay [1] (Rattus norvegicus, iv, 1 h), the EC50 is 16 µM.
Take `CCC1(CC)C(=O)NC(C)(C)c2ccc(C#N)nc21` [compound 64]: the EC50 in assay [1] (Rattus norvegicus, iv, 1 h) was 10 µM. Moreover, the AC1.4 in assay [2] turned out to be 0.390 µM.
For `CCC1(CC)C(=O)NC2(COC2)c2ncc(C#N)nc21` [compound 106], in that order: 15 µM and 0.494 µM.
Turning to `CCC1(CCO)C(=O)NC2(COC2)c2ccc(C(F)F)nc21` (centres unmarked) [compound 104], in assay [1], the EC50 was 30 µM. For the same compound, in assay [2], the AC1.4 is 5.017 µM.
On to `CCC1(CCO)C(=O)NC2(COC2)c2ccc(C(F)F)nc21` (centres unmarked) [compound 103], for which the EC50 in assay [1] (Rattus norvegicus, iv, 1 h) is 23 µM. In addition, the AC1.4 in assay [2] was determined as 1.247 µM.
In the case of `CC1(C)C(=O)NC2(COC2)c2ccc(C#N)cc21` [compound 20], the EC50 in assay [1] (Rattus norvegicus, iv, 1 h) was 30 µM.
Regarding `CC1(C)NC(=O)C(C)(Cc2cc[nH]n2)c2nc(C#N)ccc21` (centres unmarked) [compound 109], the EC50 in assay [1] (Rattus norvegicus, iv, 1 h) is 39.7 µM. In addition, the AC1.4 in assay [2] was 1.919 µM.
For `CCC1(CCO)C(=O)NC2(COC2)c2ccc(C#N)nc21` (centres unmarked) [compound 101], the 50% effective concentration (EC50) in assay [1] (Rattus norvegicus, iv, 1 h) was 24 µM. Moreover, the AC1.4 in assay [2] was found to be 2.228 µM.
Take `CCC1(CC)C(=O)NC2(COC2)c2ccc(OCC(F)(F)F)nc21` [compound 11]: the EC50 in assay [1] (Rattus norvegicus, iv, 1 h) was 17 µM.
`CC1(CCO)C(=O)NC2(COC2)c2ccc(Cl)cc21` (centres unmarked) [compound 35, 6-chloro-4-(2-hydroxyethyl)-4-methyl-2H-spiro[isoquinoline-1,3′-oxetan]-3(4H)-one]: the half-maximal effective concentration (EC50) in assay [1] is 23 µM. Moreover, in assay [2], the AC1.4 came out at 0.565 µM.
As for `CCC1(CC)C(=O)NC2(COC2)c2ccc(C#N)cc21` [compound 55, 4,4-diethyl-3-oxo-3,4-dihydro-2H-spiro[isoquinoline-1,3′-oxetane]-6-carbonitrile], the EC50 in assay [1] (Rattus norvegicus, iv, 1 h) was 7.6 µM. The AC1.4 in assay [2] turned out to be 0.141 µM.
With `CCC1(CC)C(=O)NC2(COC2)c2ccc(C#N)nc21` [compound 16], the EC50 in assay [1] (Rattus norvegicus, iv, 1 h) was 13 µM.
For `CC1(CC(F)F)C(=O)NC2(COC2)c2ccc(OC(F)F)nc21` (centres unmarked) [compound 113], the EC50 in assay [1] (Rattus norvegicus, iv, 1 h) was 8 µM. In assay [2], the AC1.4 was found to be 0.271 µM.
On the same counts, the results for `CC1(C)NC(=O)C(C)(C)c2cc(C#N)ccc21` [compound 61] are 10.3 µM and 0.537 µM.
For `CCC1(CC)C(=O)NC(C)(C)c2ncc(C#N)cc21` [compound 57], in that order: 28 µM and 0.976 µM.
For `CC1(C)NC(=O)C(C)(C)c2cc(Cl)cnc21` [compound 73], in that order: 50 µM and 1.571 µM.
As to `CC1(CCO)C(=O)NC2(COC2)c2ccc(C#N)cc21` (centres unmarked) [compound 56], the EC50 in assay [1] (Rattus norvegicus, iv, 1 h) is 30 µM. Also, the AC1.4 in assay [2] came to 2.067 µM.
On to `CC1(C)C(=O)NC2(COC2)c2ccc(Cl)cc21` [compound 52, 6-chloro-4,4-dimethyl-2H-spiro[isoquinoline-1,3′-oxetan]-3(4H)-one], for which the EC50 in assay [1] (Rattus norvegicus, iv, 1 h) was 25.6 µM. For the same compound, in the assay on rat model of post-SCI, the BBB score result is recorded as “increased BBB score”. Besides, the AC1.4 in assay [2] came to 0.326 µM.
Regarding `CCC1(CC)C(=O)NC(C)(C)c2ccc(Br)cc21` [compound 49], in assay [1] (Rattus norvegicus, iv, 1 h), the EC50 was 8.2 µM. The AC1.4 in assay [2] is under 0.077 µM.
For the compound `CCC1(C)C(=O)NC(C)(C)c2ccc(C#N)nc21` (centres unmarked) [compound 108], the EC50 in assay [1] (Rattus norvegicus, iv, 1 h) is 23 µM. Besides, in assay [2], the AC1.4 worked out at 0.450 µM.
For the compound `CCC1(CC)C(=O)NC2(COC2)c2cccnc21` [compound 12], the EC50 in assay [1] (Rattus norvegicus, iv, 1 h) was 34 µM.
As to `CCC1(CC)C(=O)NC(C)(C)c2ncc(Cl)cc21` [compound 72], the EC50 in assay [1] (Rattus norvegicus, iv, 1 h) is 15.4 µM. The AC1.4 in assay [2] was determined as 0.420 µM.
Regarding `CC1(CCO)C(=O)NC2(COC2)c2ccc(OC(F)F)nc21` (centres unmarked) [compound 19], the EC50 in assay [1] (Rattus norvegicus, iv, 1 h) was 35 µM.
Consider `CCC1(CC)C(=O)NC2(COC2)c2ccc(C(F)F)nc21` [compound 13], for which, in assay [1] (Rattus norvegicus, iv, 1 h), the EC50 is 19.5 µM.
As for `COc1ccc2c(n1)C(C)(C)C(=O)NC21COC1` [compound 147], in assay [2], the AC1.4 is 2.346 µM.
Still for that read-out and setting: with `CC1(C)NC(=O)C(C)(Cn2cccn2)c2nc(C#N)ccc21` (centres unmarked) [compound 107] the figure was 1.080 µM; with `CCC1(C)C(=O)NC2(COC2)c2ccc(OC(F)F)nc21` (centres unmarked) [compound 146], 0.283 µM.
The same measure, in the same setting: under `CCC1(CCF)C(=O)NC(C)(C)c2ccc(Br)cc21` (centres unmarked) [compound 81] stands 0.098 µM; under `CCC1(CC)C(=O)NC2(COC2)c2ncc(Cl)nc21` [compound 68], 0.830 µM.
